Experimental data as given in patent US20200255436A1, “CORTICOTROPIN RELEASING FACTOR RECEPTOR ANTAGONISTS” (Spruce Biosciences, Inc., priority 2019, published 2020).

Experiments:
CRF1 receptor = target: T1, CRF1 receptor (Homo sapiens, UniProt P34998); assay: Phase 2 study in adults with classic CAH: ACTH, 17-OHP, androstenedione response; assay type: in vivo; conditions: patients with classic CAH
T1 construct: from tissue; host or cells: Human patients in vivo (anterior pituitary corticotrophs)
T1 sequence (P34998 24-415): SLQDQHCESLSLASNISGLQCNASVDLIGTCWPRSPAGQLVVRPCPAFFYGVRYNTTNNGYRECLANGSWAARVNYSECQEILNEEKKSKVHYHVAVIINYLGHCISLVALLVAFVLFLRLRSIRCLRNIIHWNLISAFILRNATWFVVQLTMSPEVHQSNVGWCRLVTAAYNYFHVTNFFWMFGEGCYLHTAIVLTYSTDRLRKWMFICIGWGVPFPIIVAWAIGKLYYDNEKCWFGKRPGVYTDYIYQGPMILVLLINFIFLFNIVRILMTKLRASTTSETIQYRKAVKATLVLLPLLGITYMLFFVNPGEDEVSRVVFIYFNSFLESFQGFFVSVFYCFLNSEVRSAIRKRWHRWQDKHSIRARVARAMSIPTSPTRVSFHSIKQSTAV
Description: (§1) Cohort A of the Phase 2 Study includes a 6-week, multiple-dose, dose escalation study of Compound 1 for the treatment of adults with classic CAH. After screening, eligible patients will be enrolled into a 6-week treatment period followed by a 4-week washout/safety follow-up period.
(§2) This cohort will be conducted in approximately 9 patients, who will receive Compound 1 daily for up to 6 weeks. Compound 1 will be administered as an oral daily dose. Patients will undergo titration of Compound 1 through three escalating dosage strengths at 2-week intervals. Patients will have overnight PK/PD assessments performed at baseline, which include an pre-dose overnight assessment and a post-dose overnight assessment for PK/PD following administration of the first dose. At the end of each 2-week dosing period, patients will return for single overnight visits for steady-state PK/PD assessments. A follow-up outpatient visit will occur 30 days after their last dose. Upon completion of the initial cohort (Cohort A), the study will proceed to a multiple ascending dose (MAD) design with up to 3 sequential cohorts (Cohorts B, C, and D) to further evaluate the safety, PK, and PD of various SPROO1 dosing regimens and to identify an optimal dose regimen. Each cohort will undergo a 2-week run-in period, a 2-week treatment period, and a 30-day washout and safety follow-up period. During the run-in period, which will occur during screening, subjects will document in a paper diary each dose of glucocorticoid medication taken, the time of each meal, and the time they went to bed and woke up each day, to ensure compliance with background glucocorticoid regimens and the stability of their daily routine.
• 1. To evaluate the safety of Compound 1 in subjects with CAH. • 2. To assess the efficacy of Compound 1 in subjects with classic CAH as measured by percent and absolute change in 17-OHP compared to baseline.
• 3. To explore the dose(s) of Compound 1 that cause pharmacodynamics changes in plasma concentrations of ACTH, androstenedione, and testosterone, as measured by the absolute and percent change from baseline by dose. • 4. To determine pharmacokinetics of Compound 1 in subjects with CAH. • 5. To explore potential relationships between pharmacodynamics and pharmacokinetics.

[1] = Phase 2 study in adults with classic CAH: safety; assay type: in vivo, human; conditions: patients with CAH, 5-fold range of doses
Description: as §1
as §2, with “Each cohort will undergo a 2-week run-in period, a 2-week treatment period, and a 30-day washout and safety follow-up period. During the run-in period, which will occur during screening, subjects will document in a paper diary each dose of glucocorticoid medication taken, the time of each meal, and the time they went to bed and woke up each day, to ensure compliance with background glucocorticoid regimens and the stability of their daily routine.” left out
• 1. […] To assess the efficacy of Compound 1 in subjects with classic CAH as measured by percent and absolute change in 17-OHP compared to baseline.

[2] = Phase 1 safety and tolerability (Study 1 and Study 2); assay type: in vivo, human; conditions: healthy subjects
Description: Study 1 was the first-in-human study that investigated the safety, tolerability, and PK of single-escalating doses of Compound 1, given orally, to healthy adult subjects. […] The data from this study were used for the selection of doses for Study 2.
The 2-part multiple-dose study, Study 2, determined the safety and tolerability of repeated daily doses of Compound 1 and investigated the effects on biomarkers of relevance for the treatment of alcohol dependence.
The safety of Compound 1 was evaluated in 2 Phase 1 studies in healthy adult volunteers (Study 1 and Study 2). In both studies, adverse events (AEs), clinical laboratory tests, vital signs (supine blood pressure and pulse rate), and electrocardiograms (ECGs) were evaluated. Overall, in Study 1, Compound 1 was well-tolerated.

- effect on morning rise in A4 (androstenedione) (CRF1 receptor): attenuates morning rise in A4
- subjects with 17-OHP within the guideline range (1200 ng/dL) after treatment (CRF1 receptor): 50%
- subjects with ACTH in the normal range after treatment (CRF1 receptor): 40%
- subjects with Androstenedione within normal reference range after treatment (CRF1 receptor): 50%
- subjects with more than 25% reduction in 17-OHP (CRF1 receptor): 50%
- subjects with more than 25% reduction in ACTH (CRF1 receptor): 70%
- subjects with more than 25% reduction in Androstenedione (CRF1 receptor): 60%
- subjects with reduction in 17-OHP (CRF1 receptor): 80%
- subjects with reduction in ACTH (CRF1 receptor): 80%
- subjects with reduction in Androstenedione (CRF1 receptor; at various doses): 100%
Structure (SMILES): CCC(CC)c1cc(C)nc2c(-c3sc(N4CCOCC4)nc3Cl)c(C)nn12 [Compound 1, 4-(4-chloro-5-(2,5-dimethyl-7-(pentan-3-yl)pyrazolo[1,5-a]pyrimidin-3-yl)thiazol-2-yl)morpholine]
- tolerability [1]: generally well-tolerated
- tolerability ([2]; Study 1, single oral doses up to 800 mg): well-tolerated
- tolerability ([2]; Study 2, multiple doses up to 200 mg): generally well tolerated
